# Measurements taken from US4055640A, “Compositions and methods for controlling the growth of bacteria, fungi and algae using certain derivatives of N-(2,2-dichlorovinyl)salicylamides” (Nippon Kayaku Co., Ltd., priority 1975, dated 1977).
# Assays:
# [1] = tested on: Fusarium wilt of cucumber; test: Exterminating test on Fusarium wilt of cucumber (Experimental Example 4); assay type: in vivo, Fusarium oxysporum f, cucumerinum; settings: 500 ppm, soil drench 100 ml per pot, two weeks
# Method: Exterminating test on Fusarium wilt of cucumber Twenty (20) grams of infected soil was added uniformly into each pot which was filled with steam sterilized field soil, then 18 seeds of cucumber (variety; Tokiwazibai) were sowed in each pot. Eighty percent (80%) wettable powder of the present invention was diluted with water to obtain a suspension, and each pot was drenched with the suspension in an amount of 100 ml. Fifty percent (50%) wettable powder of methyl-1-(butylcarbamoyl) 2-benzimidazol carbamate (hereinafter referred to as Benlate) on the market was used as a control and tested by the same method. After two weeks of planting, degrees attacked by the pathogen was observed and a "percentage of healthy seedlings" was calculated as follows: [formula]
# [2] = tested on: Rhizoctonia solani (damping-off of cucumber); test: Exterminating test on damping-off of cucumber (Experimental Example 3); assay type: in vivo; settings: 1,000 ppm, soil drench 50 ml per pot, 10 days
# Method: Exterminating test on damping-off of cucumber
# The pots (diameter, 12 cm) were filled with field soil and then soil infected by adding Rhizoctonia solani in an amount of 5 grams per pot uniformly into the pots. Thereafter, 10 seeds of cucumber (variety: Azumamidori) were sown in each pot.
# Eighty percent (80%) wettable powder of the present invention was diluted with water to obtain a suspension and each pot was drenched with the suspension in an amount of 50 milliliters. Then, the pots were transferred to the greenhouse. Fifty percent (50%) wettable powder of pentachloronitro benzene (hereinafter referred to as PCNB) on the market was used as a control and tested by the same method. After 10 days of the inoculation, degrees attacked by the pathogen were observed and a "Percentage of healthy seedlings" was calculated. The "Percentage of healthy seedlings" was calculated as follows: [formula]
# Penicillium Citrinum [3] = test: Region of growth-inhibition around treated cotton cloth (Example 26); assay type: cell-based; settings: emulsifiable concentrate diluted 100 times
# Method: (§1) The emulsifiable concentrates which were prepared by Example 20 were diluted with water 100 times to form an emulsion. A cloth of cotton was soaked into each emulsion for 2 minutes. The clothes were dried at room temperature and cut into a square of which a side was 1 cm long. Each kind of test bacteria and fungi was inoculated, separately, on plates of potato-agar and one square cloth placed on each of such plates. Test bacteria and fungi were cultivated at 28° C for 4 days. The width of the region of growth-inhibition which was formed a circumference of the cloth was measured.
# Staphylococcus oureus = test: as above; assay type: cell-based; settings: emulsifiable concentrate diluted 100 times
# Method: as §1
# Bacillus subtilis [4] = test: as above; assay type: cell-based; settings: emulsifiable concentrate diluted 100 times
# Method: as §1
# Aspergillus niger [5] = test: as above; assay type: cell-based; settings: emulsifiable concentrate diluted 100 times
# Method: as §1
# green algae = test: Degree of propagation on slime test boards (Example 27); assay type: cell-based; settings: same method, shaking culture for 2 days
# Method: Zero point zero two (0.02) part of active compounds in the form of 10% water soluble concentrate which was prepared by Example 23 was added into 100 parts of Waxman's liquid medium. Peices of Wood iron (hereafter referred to as the slime test boards) were soaked into the Waxman's liquid medium. The bacteria which were gathered from circular water system were inoculated upon the Waxman's liquid medium and incubated at 27°-34° C by shaking culture for 2 days. The degree of propagation of the bacteria on the slime test boards was examined.
# Thegrowth-inhibiting activity of active compounds against the fungi and the green algae was also examined by the same method as mentioned above.
# The degree of propagation of the bacteria, fungi or green algae on the test boards is defined in terms of the following symbols.
# [6] = tested on: Xanthomonas citri (citrus canker); test: Exterminating test on citrus canker (Experimental Example 6); assay type: in vivo; settings: 1,000 ppm, 2 weeks after inoculation
# Method: (§2) Exterminating test on citrus canker. 4-year-old summer orange seedlings, planted in unglazed pots having a diameter of 20 cm, were employed in this test. Eighty percent (80%) wettable powder of the present invention was diluted with water, and sprayed over the seedlings in an amount of 50 ml per pot. The leaves of the seedlings were inoculated Xanthomonas citri by means of a needle. After the inoculation, the seedlings were maintained in a moist chamber at 25° C for 24 hours. Then the pots were transferred into the greenhouse. Streptomycin 20% wettable powder was used as a control, and tested by the same method. After 2 weeks after the inoculation, degrees of disease attack were observed, and an "Effect Index" was calculated as follows: [formula]
# [7] = tested on: Cladosporium cucumerinum (cucumber scab); test: Exterminating test on cucumber scab (Experimental Example 2); assay type: in vivo; set-up: scale not given here; settings: 500 ppm, 5 days after inoculation
# Method: Exterminating test on cucumber scab
# (§3) The cucumber seeds (variety: Sagamihanjiro) were sown in pots (diameter 18 cm). Eighty percent (80%) wettable powder (contents of active compound: 80%) of the present invention was diluted with water to obtain a suspension. The suspension was sprayed over the cucumber seedlings of the stage of 3-4 leaves in an amount of 20 ml per pot. After 24 hours, these pots were inoculated by means of spray of spore suspension of Cladosporium cucumerinum. The thus-inoculated seedlings were placed in a moist chamber at 20° C for 24 hours. The pots were continuously kept in a greenhouse at 20° C. The following wettable powders on the market were used as controls.
# 70% wettable powder of 1,2-bis (3-methoxy carbonyl-2-thioureid) benzene (hereinafter referred to as "thiophanate methyl") on the market.
# 75% wettable powder of ethylene bis (dithiocarbamic acid) manganese (hereinafter referred to as "maneb") on the market. After 5 days of the inoculation, degrees attached by the pathogen were observed and the results were shown in Table 3 with an "Infected Index". The "Infected Index" was calculated as follows: [formula] A : Number of leaves which were killed by hard attack B : Number of leaves severely attacked
# C : number of leaves slightly attacked
# D : number of healthy leaves
# [8] = tested on: cucumber seedlings (variety: Sagamihanjiro); test: Phytotoxicity on cucumber seedlings (Experimental Example 2); assay type: in vivo; settings: 500 ppm
# Method: as §3
# [9] = tested on: Aspergillus niger, Penicillium citrinum, Cladosporium harbarum and chaetomium globosum; test: Degree of growth inhibition of fungi on treated beach plates (Example 25); assay type: cell-based; set-up: scale not given here; settings: numerical rating, 2 weeks
# Method: The emulsifiable concentrates which were prepared by Example 20 were diluted with water 400 times and 800 times to form emulsions.
# (§4) The square plates of beach of which a side was 5 cm long and thickness was 5 mm were dipped into the emulsion for 2 minutes and dried for 24 hours at room temperature.
# (§5) The square plates were placed on the surface of agar plates. The suspensions which contained spores of Aspergillus niger, Penicillium citrinum, Cladosporium harbarum and chaetomium globosum were respectively sprayed on the agar plates and the square plates.
# The test fungi were cultivated in the incubator at the humidity of 95% and the temperature of 28° C for 2 weeks. The degree of growth inhibition is defined in terms of the following numerical ratings.
# summer orange seedlings = test: Phytotoxicity on summer orange seedlings (Experimental Example 6); assay type: in vivo; settings: 1,000 ppm
# Method: as §2
# Staphylococcus aureus [10] = test: Minimum inhibitory amount, dilution methods (Example 24); assay type: cell-based; settings: (2) glucose bouillon medium dilution method
# Source text: (§6) Bactericidal activity and fungicidal activity of the active compounds of the present invention were examined by potato-dextrose agar dilution method, or [2] glucose bouillon medium dilution method. The results are shown in Table 10 below as the minimum inhibitory concentration (the minimum concentration of active compound found to produce 100% control of the test bacteria and fungi).
# Penicillium Citrinum [11] = test: as above; assay type: cell-based; settings: (1) potato-dextrose agar dilution method
# Source text: as §6
# Bacillus subtilis [12] = test: as above; assay type: cell-based; settings: (2) glucose bouillon medium dilution method
# Source text: as §6
# Cladosporium harbarum [13] = test: as above; assay type: cell-based; settings: (1) potato-dextrose agar dilution method
# Source text: as §6
# Aspergillus niger [14] = test: as above; assay type: cell-based; settings: (1) potato-dextrose agar dilution method
# Source text: as §6
# Escherichia coli [15] = test: as above; assay type: cell-based; settings: (2) glucose bouillon medium dilution method
# Source text: as §6
# [16] = tested on: Aspergillus niger, Penicillium citrinum, Cladosporium harbarum and chaetomium globosum; test: Degree of growth inhibition of fungi on treated beach plates (Example 17); assay type: cell-based; set-up: scale not given here; settings: numerical rating, 2 weeks
# Method: The emulsifiable concentrates which were prepared by Example 10 were diluted with water 400 times and 800 times to form emulsions.
# as §4, §5
# The test fungi were cultivated in the incubator at the humidity of 95% and the temperature of 28° C for 2 weeks.
# The degree of growth inhibition is defined in terms of the following numerical ratings.
# Staphylococcus aureus [17] = test: Minimum inhibitory concentration, dilution methods (Example 14); assay type: cell-based; settings: (3) glucose bouillon medium dilution method
# Source text: as §6, with “Bacteriocidal activity” for “Bactericidal activity”, “method, [2] waxman's liquid medium dilution method” for “method,”, “or [3]” for “or [2]”, “Table 4” for “Table 10”
# Penicillium Citrinum [18] = test: as above; assay type: cell-based; settings: (1) potato-dextrose agar dilution method
# Source text: as §6, with “Bacteriocidal activity” for “Bactericidal activity”, “method, [2] waxman's liquid medium dilution method” for “method,”, “or [3]” for “or [2]”, “Table 4” for “Table 10”
# Bacillus subtilis [19] = test: as above; assay type: cell-based; settings: (3) glucose bouillon medium dilution method
# Source text: as §6, with “Bacteriocidal activity” for “Bactericidal activity”, “method, [2] waxman's liquid medium dilution method” for “method,”, “or [3]” for “or [2]”, “Table 4” for “Table 10”
# Cladosporium harbarum [20] = test: as above; assay type: cell-based; settings: (1) potato-dextrose agar dilution method
# Source text: as §6, with “Bacteriocidal activity” for “Bactericidal activity”, “method, [2] waxman's liquid medium dilution method” for “method,”, “or [3]” for “or [2]”, “Table 4” for “Table 10”
# Aspergillus niger [21] = test: as above; assay type: cell-based; settings: (1) potato-dextrose agar dilution method
# Source text: as §6, with “Bacteriocidal activity” for “Bactericidal activity”, “method, [2] waxman's liquid medium dilution method” for “method,”, “or [3]” for “or [2]”, “Table 4” for “Table 10”
# Escherichia coli [22] = test: as above; assay type: cell-based; settings: (3) glucose bouillon medium dilution method
# Source text: as §6, with “Bacteriocidal activity” for “Bactericidal activity”, “method, [2] waxman's liquid medium dilution method” for “method,”, “or [3]” for “or [2]”, “Table 4” for “Table 10”
# [23] = tested on: seedling blight of rice plant (pathogen Fusarium sp. and Rhizoctonia sp.); test: Exterminating test on seedling blight of rice plant (Experimental Example 1); assay type: in vivo; settings: 0.25g/box a.i., 5% dust mixed with soil
# Method: Exterminating test on seedling blight of rice plant Nursery boxes (60 × 30 × 3 cm) were filled with soil which were contaminated with pathogen (Fusarium sp. and Rhizoctonia sp.) The dust in which the present compound was contained in a ratio of 5% by weight was added in the box in a ratio of 5 grams per box and mixed well with soil. Thereafter, seeds of rice plant (variety: Nihonbare) were sowed in drills at a rate of 0.3 liter per box and grown up in a lighting chamber at 17° C. After 7 days from the sowing, the boxes were carried out in the field. Furthermore, 10 days thereafter the observations were made. Four percent (4%) dust of 3-hydroxy-5-methyl isoxazol (hereinafter referred to as hydroxyisoxazol) on the market was used as a control and tested by the same method. The test results are shown in Table 2 with a "percentage of healthy seedlings". The percentage of healthy seedlings was calculated as follows: […]
Compound,Percentage of healthy seedlings [1],Percentage of healthy seedlings [2],Effect Index [6],Degree of growth inhibition ([9]; 0.0125 %),Degree of growth inhibition ([9]; 0.025 %),Phytotoxicity (summer orange seedlings),Minimum inhibitory amount (Staphylococcus aureus [10]),Minimum inhibitory amount (Penicillium Citrinum [11]),Minimum inhibitory amount (Bacillus subtilis [12]),Minimum inhibitory amount (Cladosporium harbarum [13]),Minimum inhibitory amount (Aspergillus niger [14]),Minimum inhibitory amount (Escherichia coli [15]),also measured
O=C(NC=C(Cl)Cl)c1cc(Br)ccc1[O-].O=C(NC=C(Cl)Cl)c1cc(Br)ccc1[O-].[Zn+2] [compound 25],49.5%,80%,80.6,2,3,Nil,5 µg/mL,20 µg/mL,5 µg/mL,10 µg/mL,20 µg/mL,60 µg/mL,width of the region of growth-inhibition (Penicillium Citrinum [3]): 5 mm; width of the region of growth-inhibition (Staphylococcus oureus): 6 mm; width of the region of growth-inhibition (Bacillus subtilis [4]): 6 mm; width of the region of growth-inhibition (Aspergillus niger [5]): 6 mm; Degree of propagation (green algae): + (the area of propagation is 1-25% on the slime test boards.); Infected Index [7]: 12.1; Phytotoxicity [8]: Nil
O=C(NC=C(Cl)Cl)c1ccccc1[O-].O=C(NC=C(Cl)Cl)c1ccccc1[O-].[Cu+2] [compound 26],58.0%,100%,47.5,,,Nil,,,,,,,Degree of growth inhibition ([16]; 0.0125 %): 3; Degree of growth inhibition ([16]; 0.025 %): 3; minimum inhibitory concentration (Staphylococcus aureus [17]): 5 mc g/ml; minimum inhibitory concentration (Penicillium Citrinum [18]): 10 mc g/ml; minimum inhibitory concentration (Bacillus subtilis [19]): 5 mc g/ml; minimum inhibitory concentration (Cladosporium harbarum [20]): 5 mc g/ml; minimum inhibitory concentration (Aspergillus niger [21]): 10 mc g/ml; minimum inhibitory concentration (Escherichia coli [22]): 60 mc g/ml
O=C(NC=C(Cl)Cl)c1cc(Br)ccc1[O-].O=C(NC=C(Cl)Cl)c1cc(Br)ccc1[O-].[Mn+2] [compound 29],57.5%,55%,56.2,2,3,Nil,10 µg/mL,20 µg/mL,5 µg/mL,10 µg/mL,20 µg/mL,60 µg/mL,Percentage of healthy seedlings [23]: 69.8%
